Assay results from ChEMBL document CHEMBL5579865, “Discovery of Broad-Spectrum Herpes Antiviral Oxazolidinone Amide Derivatives and Their Structure-Activity Relationships” (ACS Med Chem Lett, 2024).
pEC50, pIC50: −log10 of the molar value.

Key:
Human alphaherpesvirus 2 = test: Antiviral activity against HSV-2 G strain infected in African green monkey Vero cells assessed as reduction in viral replication incubated for 72 hrs by qRT-PCR analysis; format: functional, organism-based; conditions: for pEC50: Human alphaherpesvirus 2, G strain, Vero, 72 h, read-out: EC50
Human betaherpesvirus 5 = test: Antiviral activity against HCMV AD169 infected in human MRC5 cells assessed as reduction in viral replication incubated for 72 hrs in presence of 50 % serum by qRT-PCR analysis; format: functional, organism-based; conditions: for pEC50: Human betaherpesvirus 5, AD169, MRC5, 72 h, read-out: EC50
[1] = Inhibition of HCMV DNA polymerase extracted from baculovirus infected Sf21 cells using Heterodimeric nucleic acid as substrate preincubated with enzyme for 30 mins followed by substrate and dATP addition measured after 60 mins by biotinylated UTP incorporation based AlphaLISA assay; design: species or system Human betaherpesvirus 5
Human alphaherpesvirus 1 = test: Antiviral activity against HSV-1 F strain infected in African green monkey Vero cells assessed as reduction in viral replication incubated for 72 hrs by qRT-PCR analysis; format: functional, organism-based; conditions: for pEC50: Human alphaherpesvirus 1, F strain, Vero, 72 h, read-out: EC50
Human alphaherpesvirus 3 [2] = test: Antiviral activity against VZV Street infected in human MeWo cells assessed as reduction in viral replication incubated for 72 hrs by qRT-PCR analysis; format: functional, organism-based; conditions: for pEC50: Human alphaherpesvirus 3, Street, MeWo, 72 h, read-out: EC50
[3] = Inhibition of VZV DNA polymerase extracted from baculovirus infected Sf21 cells using Heterodimeric nucleic acid as substrate preincubated with enzyme for 30 mins followed by substrate and dATP addition measured after 60 mins by biotinylated UTP incorporation based AlphaLISA assay; design: species or system Human alphaherpesvirus 3
Human alphaherpesvirus 3 [4] = test: Antiviral activity against VZV Street infected in human MRC5 cells assessed as reduction in viral replication incubated for 72 hrs by qRT-PCR analysis; format: functional, organism-based; conditions: Human alphaherpesvirus 3, Street, MRC5, 72 h

SMILES | pEC50 (Human alphaherpesvirus 2) | pEC50 (Human betaherpesvirus 5) | pIC50 [1] | pEC50 (Human alphaherpesvirus 1) | pEC50 (Human alphaherpesvirus 3 [2]) | pIC50 [3] | EC50 (Human alphaherpesvirus 2) | EC50 (Human betaherpesvirus 5) | EC50 (Human alphaherpesvirus 1) | EC50 (Human alphaherpesvirus 3 [2]) | pEC50 (Human alphaherpesvirus 3 [4])
O=C1N[C@@H](Cc2ccc3c(c2)OCC(Cc2ccc(Cl)cc2)N3)CO1 (stereo partly drawn) | 5.28 | 4.88 | 6.31 | 5.51 | 5.51 | 6.46 | – | – | – | – | –
Cc1nccn1Cc1ccc(NC(=O)Cc2ccc(Cl)cc2)cc1 | – | – | 4.26 | – | – | 4.46 | – | – | – | – | –
COc1cc(NC(=O)Cc2ccc(Cl)cc2)c(C)cc1C[C@H]1COC(=O)N1 | – | – | 4.97 | – | – | 4.86 | Not Active | Not Active | Not Active | Not Active | –
CC(C)(c1ccccc1)c1ccc(NC(=O)Cc2ccc(Cl)cc2)cc1 | – | – | < 3.88 | – | – | < 3.88 | – | – | – | – | –
O=C(Cc1ccc(Cl)cc1)Nc1ccc(C(=O)c2ccccc2)cc1 | – | – | 4.74 | – | – | 4.61 | – | – | – | – | –
COc1cc(NC(=O)Cc2ccc(C#N)c(F)c2)ccc1C[C@H]1COC(=O)N1 | 6.26 | 6.85 | 7.34 | 6.31 | 6.58 | 7.55 | – | – | – | – | –
CS(=O)(=O)c1cccc(Cc2ccc(NC(=O)Cc3ccc(Cl)cc3)cc2)c1 | – | – | 4.88 | – | – | 4.90 | – | – | – | – | –
N#CC1(c2ccc(NC(=O)Cc3ccc(Cl)cc3)cc2)CC1 | – | – | 5.08 | – | – | 5.57 | – | – | – | – | –
COc1cc(NC(=O)Cc2ccc(OC(F)(F)F)cc2)ccc1C[C@H]1COC(=O)N1 | – | – | 5.89 | – | – | 5.77 | Not Active | Not Active | Not Active | – | 4.19
COc1cc(NC(=O)Cc2ccc(Cl)c(F)c2)ccc1C[C@H]1COC(=O)N1 | 6.19 | 5.71 | 7.01 | 6.52 | 6.90 | 7.44 | – | – | – | – | –
COc1cc(NC(=O)Cc2ccc(F)c(Cl)c2)ccc1C[C@H]1COC(=O)N1 | 5.28 | 5.15 | 6.45 | 5.67 | 6.36 | 6.63 | – | – | – | – | –
O=C(Cc1ccc(Cl)cc1)Nc1ccc(C[C@H]2COC(=O)N2)cc1 | 5.87 | 5.36 | 6.60 | 6.28 | 6.30 | 6.74 | – | – | – | – | –
O=C(Cc1ccc(Cl)cc1)Nc1ccc(CC2COC(=O)N2)cn1 (racemic) | 4.94 | 4.21 | 5.39 | 4.88 | 5.35 | 5.68 | – | – | – | – | –
COc1cc(NC(=O)Cc2ccc(C#N)cc2)ccc1C[C@H]1COC(=O)N1 | 6.10 | 6.73 | 7.28 | 6.53 | 6.88 | 7.82 | – | – | – | – | –
C[C@H](c1ccc(NC(=O)Cc2ccc(Cl)cc2)cc1)[C@H]1COC(=O)N1 | – | – | 4.78 | – | – | 5.19 | Not Active | Not Active | Not Active | Not Active | –
O=C(Cc1ccc(Cl)cc1)Nc1cnc(C[C@H]2COC(=O)N2)cn1 | 4.35 | 4.03 | 5.19 | 4.59 | – | 5.68 | – | – | – | Not Active | –
CC(C(=O)Nc1ccc(C[C@H]2COC(=O)N2)cc1)c1ccc(Cl)cc1 (stereo partly drawn) | – | – | 5.14 | – | – | 5.11 | Not Active | Not Active | Not Active | Not Active | –
O=C1N[C@@H](Cc2ccc(NS(=O)(=O)Cc3ccc(Cl)cc3)cc2)CO1 | – | – | 3.99 | – | – | 4.90 | Not Active | Not Active | Not Active | Not Active | –
